Paper PMC8044163, “Vitamin D and lumisterol derivatives can act on liver X receptors (LXRs)” (Scientific Reports, 2021)

Test system: murine dermal fibroblasts
Test: RNA-Seq of newborn murine dermal fibroblasts
Format: cell-based, mouse
Settings: 10^−7 M, 24 h
Protocol: All animal studies followed guidelines outlined by the NIH Guide for the Care and Use of Laboratory Animals and protocols were approved by the Institutional Animal Care and Use Committee at the NIEHS or the UAB. […] Skin samples from newborn C57BL/6 mice were collected at the NIEHS. Dermal fibroblasts were isolated from the skin of newborn mice, 1–2 day old. Briefly, we followed the protocols described previously. The skin was washed in PBS, cut into smaller pieces and incubated in 2.4 U/ml of dispase II (Roche) overnight at 4 °C. The dermis was separated from the epidermis and incubated in 0.1% collagenase (Roche) at 4 °C overnight. […] Single cell suspension was prepared by pipetting and draining through a cell strainer. After centrifugation, cell pellets were suspended in DMEM medium containing 10% charcoal-stripped fetal bovine serum (cFBS), mouse fibroblasts growth factor (FGF) and 1% antibiotic, and inoculated into tissue culture dishes (Midwest Scientific, TPP). Cells, in early passages, from different mice were pooled together to provide representative samples for experiments. Fibroblasts were cultured in Petri dishes (10 cm in diameter) in DMEM and 10% cFBS and triplicate semi-confluent cultures were treated as described.
Triplicate cultures of murine fibroblasts were used for RNA isolation (RNAeasy Micro kit, Qiagen), the RNA samples were combined for each condition and at least 200 ng of RNA for each sample was used to create libraries for RNA sequencing by BGI Americas Corporation Service (Cambridge, MA)[67]. Quality of RNA and its concentration were determined using Agilent 2100.
The raw sequence FASTQ files were aligned to Gencode’s GRCm38 p4 Release M11 genome using STAR version 2.5.4b (parameters used: –outReadsUnmapped Fastx; –outSAMtype BAM SortedByCoordinate; –outSAMattributes All; –outFilterIntronMotifs RemoveNoncanonicalUnannotated)[69]. The abundance of transcripts was calculated from the alignments using Cufflinks version 2.2.1 (parameters used: –G; –L; –library-type fr-firststrand). Samples were merged using default parameters with Cuffmerge[70],[71]. The differential expression was calculated using Cuffdiff’s default parameters. The raw data have been deposited at the NCBI GEO (GSE145818).

CC(C)CCC[C@](C)(O)[C@H]1CC[C@H]2[C@@H]3CC=C4C[C@@H](O)CC[C@]4(C)[C@H]3CC[C@@]21C [20(OH)C, 20-hydroxycholesterol, reference compound]
Adh7 expression level: 0.7754
Adh7 log2(fold_change) vs control: 1.595
Aqp11 expression level: 0.8073
Aqp11 log2(fold_change) vs control: 1.853
Arid3b expression level: 0.9108
Arid3b log2(fold_change) vs control: -1.9
Bicd1 expression level: 0.39
Bicd1 log2(fold_change) vs control: -2.453
Btc expression level: 1.112
Btc log2(fold_change) vs control: 2.1992
Car9 expression level: 1.738
Car9 log2(fold_change) vs control: -2.435
Cbs expression level: 0.5333
Cbs log2(fold_change) vs control: -1.867
Ccl4 expression level: 0.1695
Ccl4 log2(fold_change) vs control: -2.322
Cd68 expression level: 2.992
Cd68 log2(fold_change) vs control: 1.391
Cd200 expression level: 0.446
Cd200 log2(fold_change) vs control: -1.664
Cherp expression level: 31.8463
Cherp log2(fold_change) vs control: -2.536
Clec2g expression level: 0
Clec2g log2(fold_change) vs control: -inf
Cnnm4 expression level: 3.864
Cnnm4 log2(fold_change) vs control: -3.699
Cox15 expression level: 14.0674
Cox15 log2(fold_change) vs control: 1.269
Cpa2 expression level: 0.3139
Cpa2 log2(fold_change) vs control: -2.322
Ctrl expression level: 0.4557
Ctrl log2(fold_change) vs control: -1.16
Dcun1d1 expression level: 3.938
Dcun1d1 log2(fold_change) vs control: -1.746
Defb42 expression level: 0.3618
Defb42 log2(fold_change) vs control: -1.335
Dtx1 expression level: 0.6172
Dtx1 log2(fold_change) vs control: -1.429
Ehf expression level: 0.3171
Ehf log2(fold_change) vs control: -1.391
Ercc2 expression level: 15.1049
Ercc2 log2(fold_change) vs control: -3.489
Erh expression level: 1.52
Erh log2(fold_change) vs control: -2.047
Fmnl1 expression level: 0.0589
Fmnl1 log2(fold_change) vs control: -3.9854
Gys2 expression level: 0
Gys2 log2(fold_change) vs control: -inf
Hist1h2ab expression level: 1.148
Hist1h2ab log2(fold_change) vs control: 2
Hist1h2bg expression level: 0.5658
Hist1h2bg log2(fold_change) vs control: -2
Hist1h2bh expression level: 0
Hist1h2bh log2(fold_change) vs control: -inf
Hist1h4c expression level: 0.4039
Hist1h4c log2(fold_change) vs control: -1
Isl1 expression level: 0.3429
Isl1 log2(fold_change) vs control: -1.227
Krt19 expression level: 12.2793
Krt19 log2(fold_change) vs control: 1.279
Larp1b expression level: 3.613
Larp1b log2(fold_change) vs control: -2.853
Lhx6 expression level: 2.203
Lhx6 log2(fold_change) vs control: -2.404
Lsm5 expression level: 0.8846
Lsm5 log2(fold_change) vs control: -1.59
M1ap expression level: 2.484
M1ap log2(fold_change) vs control: 2.0059
Med9os expression level: 0.3191
Med9os log2(fold_change) vs control: -2.7
Nckipsd expression level: 8.765
Nckipsd log2(fold_change) vs control: 1.073
Nr3c2 expression level: 0.1285
Nr3c2 log2(fold_change) vs control: -3.098
Nr6a1 expression level: 0.3735
Nr6a1 log2(fold_change) vs control: -2.304
Ntrk3 expression level: 0.3696
Ntrk3 log2(fold_change) vs control: -2.33
Parvg expression level: 0.09605
Parvg log2(fold_change) vs control: -3.946
Pde4dip expression level: 20.5427
Pde4dip log2(fold_change) vs control: -7.578
Psd4 expression level: 0.1792
Psd4 log2(fold_change) vs control: -3.129
Ptpa expression level: 149.828
Ptpa log2(fold_change) vs control: 1.1778
Ptpn6 expression level: 1.723
Ptpn6 log2(fold_change) vs control: -2.798
Rnu3a expression level: 0
Rnu3a log2(fold_change) vs control: -inf
Rpph1 expression level: 0.6576
Rpph1 log2(fold_change) vs control: -1
Rsad1 expression level: 1.413
Rsad1 log2(fold_change) vs control: -1.15
Saa1 expression level: 0.1908
Saa1 log2(fold_change) vs control: -2.322
Samd12 expression level: 0.5476
Samd12 log2(fold_change) vs control: -2.717
Scn8a expression level: 0.2978
Scn8a log2(fold_change) vs control: -1.43
Sgca expression level: 0.3806
Sgca log2(fold_change) vs control: -1.697
Slc15a4 expression level: 13.0176
Slc15a4 log2(fold_change) vs control: -2.132
Slc16a5 expression level: 0.4564
Slc16a5 log2(fold_change) vs control: -1.015
Snhg9 expression level: 7.471
Snhg9 log2(fold_change) vs control: -1.322
St7 expression level: 21.7063
St7 log2(fold_change) vs control: -1.667
Stmn1 expression level: 6.2905
Stmn1 log2(fold_change) vs control: 2.02
Susd1 expression level: 2.158
Susd1 log2(fold_change) vs control: 1.637
Syt8 expression level: 0.2562
Syt8 log2(fold_change) vs control: -3.638
Syt12 expression level: 1.318
Syt12 log2(fold_change) vs control: -1.636
Tldc2 expression level: 0
Tldc2 log2(fold_change) vs control: -inf
Tnnc2 expression level: 0.1558
Tnnc2 log2(fold_change) vs control: -2.361
Unc5c expression level: 0.4963
Unc5c log2(fold_change) vs control: -1.133
Wdr17 expression level: 0.677
Wdr17 log2(fold_change) vs control: -1.73
Zbtb18 expression level: 5.289
Zbtb18 log2(fold_change) vs control: -3.07
Zfp618 expression level: 2.236
Zfp618 log2(fold_change) vs control: -1.093
number of genes downregulated, FC ≥ 2: 498
number of genes upregulated, FC ≥ 2: 564
number of genes solely downregulated (FC ≥ 2): 109 (10.3%)
number of genes solely upregulated (FC ≥ 2): 291 (19.4%)
